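Exposure lasted 48 hours, with cells grown in 96-well plates and compounds tested at five concentrations. GI50: concentration for 50% inhibition of growth. TGI marks complete inhibition of growth.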
Legend:
Experiment in all cases: NCI-60 cell line screen, 48 h
786-0 renal = tested on: 786-0 renal
A498 renal = tested on: A498 renal
A549 NSCLC = tested on: A549 NSCLC
ACHN renal = tested on: ACHN renal
BT-549 breast = tested on: BT-549 breast
CAKI-1 renal = tested on: CAKI-1 renal
CCRF-CEM leukemia = tested on: CCRF-CEM leukemia
COLO 205 colon = tested on: COLO 205 colon
DU-145 prostate = tested on: DU-145 prostate
EKVX NSCLC = tested on: EKVX NSCLC
HCC-2998 colon = tested on: HCC-2998 colon
HCT-116 colon = tested on: HCT-116 colon
HCT-15 colon = tested on: HCT-15 colon
HL-60(TB) leukemia = tested on: HL-60(TB) leukemia
HOP-62 NSCLC = tested on: HOP-62 NSCLC
HS 578T breast = tested on: HS 578T breast
HT29 colon = tested on: HT29 colon
IGROV1 ovarian = tested on: IGROV1 ovarian
K-562 leukemia = tested on: K-562 leukemia
KM12 colon = tested on: KM12 colon
LOX IMVI melanoma = tested on: LOX IMVI melanoma
M14 melanoma = tested on: M14 melanoma
MALME-3M melanoma = tested on: MALME-3M melanoma
MCF7 breast = tested on: MCF7 breast
MDA-MB-231 breast = tested on: MDA-MB-231 breast
MDA-MB-435 = tested on: MDA-MB-435
MOLT-4 leukemia = tested on: MOLT-4 leukemia
NCI-H226 lung = tested on: NCI-H226 lung
NCI-H23 lung = tested on: NCI-H23 lung
NCI-H460 lung = tested on: NCI-H460 lung
NCI-H522 lung = tested on: NCI-H522 lung
NCI/ADR-RES ovarian = tested on: NCI/ADR-RES ovarian
OVCAR-3 ovarian = tested on: OVCAR-3 ovarian
OVCAR-4 ovarian = tested on: OVCAR-4 ovarian
OVCAR-5 ovarian = tested on: OVCAR-5 ovarian
OVCAR-8 ovarian = tested on: OVCAR-8 ovarian
PC-3 prostate = tested on: PC-3 prostate
RPMI-8226 leukemia = tested on: RPMI-8226 leukemia
RXF 393 renal = tested on: RXF 393 renal
SF-268 CNS = tested on: SF-268 CNS
SF-295 CNS = tested on: SF-295 CNS
SF-539 CNS = tested on: SF-539 CNS
SK-MEL-2 melanoma = tested on: SK-MEL-2 melanoma
SK-MEL-28 melanoma = tested on: SK-MEL-28 melanoma
SK-MEL-5 melanoma = tested on: SK-MEL-5 melanoma
SK-OV-3 ovarian = tested on: SK-OV-3 ovarian
SN12C renal = tested on: SN12C renal
SNB-19 CNS = tested on: SNB-19 CNS
SNB-75 CNS = tested on: SNB-75 CNS
SR leukemia = tested on: SR leukemia
SW-620 colon = tested on: SW-620 colon
T-47D breast = tested on: T-47D breast
TK-10 renal = tested on: TK-10 renal
U251 CNS = tested on: U251 CNS
UACC-257 melanoma = tested on: UACC-257 melanoma
UACC-62 melanoma = tested on: UACC-62 melanoma
UO-31 renal = tested on: UO-31 renal

## CN1CCN(Cc2ccc(NC(=O)c3cncc(C#Cc4cnc5ccc(N6CCOCC6)nn45)c3)cc2C(F)(F)F)CC1
786-0 renal
  GI50: 144 nM
  TGI: 433 nM
A498 renal
  GI50: 97.5 nM
  TGI: 189 nM
A549 NSCLC
  GI50: 121 nM
  TGI: 555 nM
ACHN renal
  GI50: 131 nM
  TGI: 510 nM
BT-549 breast
  GI50: 259 nM
  TGI: 763 nM
CAKI-1 renal
  GI50: 51.9 nM
  TGI: 174 nM
CCRF-CEM leukemia
  GI50: 125 nM
  TGI: 5980 nM
COLO 205 colon
  GI50: 53.6 nM
  TGI: 129 nM
DU-145 prostate
  GI50: 93.6 nM
  TGI: 398 nM
EKVX NSCLC
  GI50: 101 nM
  TGI: 564 nM
HCC-2998 colon
  GI50: 130 nM
  TGI: 474 nM
HCT-116 colon
  GI50: 26.3 nM
  TGI: 342 nM
HCT-15 colon
  GI50: 112 nM
  TGI: 375 nM
HL-60(TB) leukemia
  GI50: 23.9 nM
  TGI: 224 nM
HOP-62 NSCLC
  GI50: 100 nM
  TGI: 328 nM
HS 578T breast
  GI50: 85.3 nM
  TGI: 353 nM
HT29 colon
  GI50: 31.3 nM
  TGI: 392 nM
IGROV1 ovarian
  GI50: 46.8 nM
  TGI: 430 nM
K-562 leukemia
  GI50: 5 nM
  TGI: 1900 nM
KM12 colon
  GI50: 5 nM
  TGI: 243 nM
LOX IMVI melanoma
  GI50: 59.3 nM
  TGI: 142 nM
M14 melanoma
  GI50: 50.6 nM
  TGI: 122 nM
MALME-3M melanoma
  GI50: 37.2 nM
  TGI: 153 nM
MCF7 breast
  GI50: 26.9 nM
  TGI: 442 nM
MDA-MB-231 breast
  GI50: 33 nM
  TGI: 204 nM
MDA-MB-435
  GI50: 53.3 nM
  TGI: 231 nM
MOLT-4 leukemia
  GI50: 95.8 nM
  TGI: 1460 nM
NCI-H226 lung
  GI50: 23.9 nM
  TGI: 320 nM
NCI-H23 lung
  GI50: 79.6 nM
  TGI: 325 nM
NCI-H460 lung
  GI50: 84.5 nM
  TGI: 254 nM
NCI-H522 lung
  GI50: 68 nM
  TGI: 161 nM
NCI/ADR-RES ovarian
  GI50: 814 nM
  TGI: 3750 nM
OVCAR-3 ovarian
  GI50: 99.4 nM
  TGI: 407 nM
OVCAR-4 ovarian
  GI50: 99.1 nM
  TGI: 543 nM
OVCAR-5 ovarian
  GI50: 85.8 nM
  TGI: 548 nM
OVCAR-8 ovarian
  GI50: 134 nM
  TGI: 541 nM
PC-3 prostate
  GI50: 145 nM
  TGI: 1040 nM
RPMI-8226 leukemia
  GI50: 153 nM
  TGI: 553 nM
RXF 393 renal
  GI50: 78.6 nM
  TGI: 175 nM
SF-268 CNS
  GI50: 82.3 nM
  TGI: 218 nM
SF-295 CNS
  GI50: 140 nM
  TGI: 686 nM
SF-539 CNS
  GI50: 60 nM
  TGI: 205 nM
SK-MEL-2 melanoma
  GI50: 68 nM
  TGI: 144 nM
SK-MEL-28 melanoma
  GI50: 122 nM
  TGI: 433 nM
SK-MEL-5 melanoma
  GI50: 225 nM
  TGI: 814 nM
SK-OV-3 ovarian
  GI50: 144 nM
  TGI: 405 nM
SN12C renal
  GI50: 49.5 nM
  TGI: 300 nM
SNB-19 CNS
  GI50: 163 nM
  TGI: 686 nM
SNB-75 CNS
  GI50: 47.7 nM
  TGI: 155 nM
SR leukemia
  GI50: 97.2 nM
  TGI: 367 nM
SW-620 colon
  GI50: 49.7 nM
  TGI: 378 nM
T-47D breast
  GI50: 199 nM
  TGI: 2620 nM
TK-10 renal
  GI50: 79.9 nM
  TGI: 229 nM
U251 CNS
  GI50: 141 nM
  TGI: 558 nM
UACC-257 melanoma
  GI50: 160 nM
  TGI: 936 nM
UACC-62 melanoma
  GI50: 86.3 nM
  TGI: 419 nM
UO-31 renal
  GI50: 135 nM
  TGI: 359 nM
